Experimental data taken from PubChem BioAssay AID2305 (GlaxoSmithKline (GSK), 2010).

Each compound was assayed on P. falciparum 3D7 growth, pLDH absorbance (assay: P. falciparum 3D7 growth inhibition, dose response, strain 3D7 (AID 2305)).

SMILES | IC50 [nM]
NCc1ccc(Nc2nccc(Nc3ccc(-c4ccccc4)cc3)n2)cc1 | 890
COc1ccc(-c2ccc(NC(=O)c3cccc(C#N)c3)cc2)cc1CN1CCCN(C)CC1 | 290
CN(C)Cc1ccc(-c2ccc(NC(=O)c3ccc4c(=O)n(Cc5ccccc5)cnc4c3)cc2)cc1 | 650
NOCCCCOc1ccc(Br)cc1 | 190
CCOC(=O)c1cnc2c(OC)cc(OC)c(Cl)c2c1Nc1cccc(C)c1C | 310
Cc1ccc(CN2CCN(c3cc4c(cc3Cl)CCN4C(=O)Cc3ccc(NC(=O)c4ccc(C(F)(F)F)cc4)cc3)CC2)cc1 | 940
COc1coc(C(=O)NC2CCN(CC3(c4ccc(Cl)cc4)CCC3)CC2)c1OC | 160
CN1CCN(c2ccc(Nc3ncc([N+](=O)[O-])c(Nc4ccccc4O)n3)cc2)CC1 | 720
Oc1ccccc1-c1nc2cccnc2n1CCc1cccc(C(F)(F)F)c1 | 1270
Cc1cc(N[C@@H](Cc2ccccc2)C(=O)NCc2cccc(F)c2)nc(NCCc2ccccc2)n1 | 1020
Cc1ccc2nc(-c3cc(-c4ccc(CO)cc4)cnc3N)[nH]c2c1 | 860
CN1CCCC1CCCOC(=O)c1ccc(N)cc1 (stereo not drawn) | 920
CON=Cc1ccn(-c2ccc(O)c3c2C[C@H]2C[C@H]4[C@H](N(C)C)C(=O)C(C(N)=O)=C(O)[C@@]4(O)C(=O)C2=C3O)c1 | 770
COc1ccc(CC(=O)NC2CCN(c3ccnc4cc(Cl)ccc34)C2)cc1 (stereo not drawn) | 240
CS(=O)(=O)NCCCNCc1ccc(-c2ccc(-c3nc4ccc(C(F)(F)F)cc4[nH]3)s2)cc1 | 510
COc1ccc2c(NN=Cc3ccccc3)cc(C)nc2c1 | 850
N#Cc1cccc(NC(=O)Nc2cccc(-c3cccc(-c4nc5ccc(F)cc5[nH]4)c3)c2)c1 | 230
Brc1cc2c(cc1C=NNc1nc(Nc3ccccc3)nc(Nc3ccccc3)n1)OCO2 | 800
O=C(Nc1ccc(Cl)cc1)c1cc(Cl)ccc1NC(=O)C1(c2ccc(Cl)cc2)CCCC1 | 1100
CNCCNCc1cccc(-c2cccc(-c3nc4ccc(C(F)(F)F)cc4[nH]3)c2)c1 | 200
O=C(COc1ccc(Cl)c(Cl)c1)NCCCCCN1CCCN(C(=O)Nc2ccc(Cl)c(Cl)c2)CC1 | 1730
Oc1ccc2c(CNCCc3ccccc3)c(O)ccc2c1CNCCc1ccccc1 | 100
CS(=O)(=O)c1ccc(CCNCc2ccc(-c3ccc(CN(C(=O)c4cccc(C#N)c4)C4CCN(Cc5ccccc5)CC4)cc3)nc2)cc1 | 980
Nc1ccc2nc(C=Cc3ccccc3)[nH]c2c1 | 750

SMILES | IC50 [nM]
CN(C)CCN(Cc1ccc(-c2ccc(CNCCc3ccccc3)cc2)nc1)C(=O)CCC1CCCC1 | 800
O=C(Cc1cccc(Cl)c1)Nc1cccc(-c2c[nH]c3nc(Nc4cccc(O)c4)ncc23)c1 | 730
COc1cccc(C2(NC[C@@H](O)[C@H](Cc3ccccc3)NC(=O)c3ccccc3)CCCCC2)c1 | 730
CN1CCN(Cc2ccc(-c3cc4c(Nc5ccc(OCc6cccc(F)c6)c(Cl)c5)ncnc4s3)[nH]2)CC1 | 770
CN(C)CCOc1ccc(NC(=O)NC(C)(C)c2nc(-c3ccc(Cl)c(O)c3)c(-c3ccncc3)[nH]2)cc1 | 110
COc1ccc(-c2cccc(NC(=O)c3cccc(Cl)c3)c2)cc1CN1CCN(C)CC1 | 760
N#Cc1nc2ccc(OCCN(Cc3ccccc3C(F)(F)F)c3ccc(C#N)c(C(F)(F)F)c3)cc2s1 | 860
CC[C@H](N=C(Nc1ccc(-c2ccccc2)cc1)Nc1ccc(C#N)cc1O)c1ccccc1 | 760
COc1c(C2CCN(CCCCNC(=O)c3ccc(-c4ccc(C(F)(F)F)cc4)c(C(=O)OC(C)C)c3)CC2)ccc2c1CCCC2 | 860
CS(=O)(=O)Cc1ccc(Nc2nccc(-c3c(-c4cccc(C(=O)Nc5c(F)cccc5F)c4)nn4ccccc34)n2)cc1 | 530
CCOC(=O)c1c(CN2CCN(C)CC2)n(Cc2ccccc2)c2cc(Br)c(O)cc12 | 590
CC[C@H]1CN2CC[C@@H]1C[C@H]2[C@H](O)c1cc(N2CCC(C(N)=O)CC2)nc2ccc(OC)cc12 | 770
CC(=O)Nc1ccc(OCCCN(Cc2ccccc2OC(F)(F)F)c2ccc(C(F)(F)F)c(C#N)c2)c(Cl)c1 | 810
Cc1cc(NN=Cc2ccc(F)cc2)c2cc(F)ccc2n1 | 640
O=C(NC1CCN(Cc2ccccc2)CC1)c1ccc(-c2nc3cc(Cl)c(Cl)cc3[nH]2)s1 | 310
Cc1cccc2[nH]c(-c3cccc(-c4cccc(CNCCc5cccn5C)c4)c3)nc12 | 730
Cc1ccc(N2CCN(C(=O)c3cccc(-c4cncc5nc(-c6ccco6)n(C)c45)c3)CC2)nc1 | 600
CCC(C)NC(=O)CN1CN(c2ccccc2)C2(CCN(C(=O)c3ccc(-c4ccccc4)cc3)CC2)C1=O (stereo not drawn) | 130
CCOc1cc(C)ccc1C1CCN(CCCCNC(=O)c2ccc(-c3ccc(C(F)(F)F)cn3)cc2)CC1 | 790
Cn1cnnc1Sc1ccc(CN2CCOc3ccc(C4=CCCCC4)cc3C2)o1 | 850
Cc1noc(C)c1-c1cccc(CNCc2ccc(-c3cccc(-c4nc5ccc(F)cc5[nH]4)c3)cc2)c1 | 550
COc1ccc(S(=O)(=O)N(c2cc(Br)cc3c2OCC3)S(=O)(=O)c2ccc(OC)c(N3CCN(C)CC3)c2)cc1N1CCN(C)CC1 | 1170
CCCc1cc(Cc2cnc(N)nc2N)cc(CCC)c1O | 280
CC1CCN(CC[C@H]2CCCN2S(=O)(=O)c2cccc(NC(=O)c3ccc(-c4ccc(Cl)cc4)o3)c2)CC1 | 690
